Results on one compound are retold here after patent US4859186A, “Pulpotomy agent and method of use” (priority 1988, dated 1989).

Data set [1] has as its system lactate dehydrogenase (LDH) in bovine pulp. As to the kind of experiment: Residual LDH activity in calf pulp after treatment. It counts as biochemical. From the text:
(§1) Two assays were used to evaluate the effectiveness of the composition of the present invention as a pulpotomy agent. The first was based on the diffusion of bovine serum albumin (BSA) from collagen-BSA gel wafers following fixation. That methodology was based on the method described in Flitney, F. W., "The time course of the fixation of albumin by formaldehyde, glutaraldehyde, acrolein and other higher aldehydes," 85 J. Royal Microscop. […] 353 (1966)). The collagen-BSA gel was formulated by Flitney to simulate the cytoplasm of the cell. Diffusion of BSA from the gel was intended to provide a reproducible model by which the relative change in the rate of leakage of protein through the cell membrane could be monitored during fixation with different techniques. This procedure was also modified as described in Example III to allow the evaluation of the depth of penetration of the composition of the present invention into adjoining cells of the pulpal tissue. The second assay was the determination of residual lactate dehydrogenase activity (LDH) in bovine pulp following treatment with the composition of the present invention.
The effectiveness of the pulpotomy agent prepared as described in Example I, above, was also evaluated by an assay for residual LDH Activity. In this assay, calf pulp was harvested from freshly extracted molars, minced into pieces of approximately 1 mm^3, divided into aliquots weighing approximately 0.5 g, and stored at -20° C. until used. After thawing each aliquot was wet weighed and incubated in the 4% glutaraldehyde-containing pulpotomy agent prepared as described in Example I for 4 minutes. The treated sample was homogenized for one minute in ten ml of 0.2M Tris, pH 7.3, using a homogenizer. Following centrifugation for ten minutes at 300 rpm on a clinical centrifuge, the supernatant was decanted. One hundred microliters of the supernatant was added to a cuvette containing 2.8 ml Tris HCl, 1.0 ml of […], and 0.1 ml of 30 mM sodium pyruvate and vortexed for 10 seconds. The change in absorbence per minute was recorded on a spectrophotometer at 345 nm at room temperature. The activities were calculated as units/g wet weight/min, and the mean was calculated for five samples in each group. The values are reported as a percentage of controls and statistics were the same as described in Example II, above.

Data set [2] deals with bovine serum albumin (BSA) in collagen-BSA gels (Bos taurus, UniProt P02769). The data set can be described thus: Penetration (depth of fixation) assay: collagen-BSA gels submerged intact in vials.
Chain of bovine serum albumin (BSA) in collagen-BSA gels (P02769 25-607): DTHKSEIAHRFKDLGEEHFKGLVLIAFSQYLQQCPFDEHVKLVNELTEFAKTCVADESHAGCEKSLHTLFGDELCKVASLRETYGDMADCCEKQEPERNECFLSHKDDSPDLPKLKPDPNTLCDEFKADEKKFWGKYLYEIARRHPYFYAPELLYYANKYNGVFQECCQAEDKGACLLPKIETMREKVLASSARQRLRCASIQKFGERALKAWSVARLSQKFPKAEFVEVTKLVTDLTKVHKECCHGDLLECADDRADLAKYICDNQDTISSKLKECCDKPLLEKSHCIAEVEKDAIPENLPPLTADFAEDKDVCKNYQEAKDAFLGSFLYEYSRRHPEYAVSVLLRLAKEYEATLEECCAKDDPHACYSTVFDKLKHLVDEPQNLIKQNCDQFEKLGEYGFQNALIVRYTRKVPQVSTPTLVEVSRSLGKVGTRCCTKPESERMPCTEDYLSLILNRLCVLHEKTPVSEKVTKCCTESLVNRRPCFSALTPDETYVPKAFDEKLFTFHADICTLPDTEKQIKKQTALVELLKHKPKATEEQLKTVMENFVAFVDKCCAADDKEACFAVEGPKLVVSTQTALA
Source text: as §1

The target in data set [3] is bovine serum albumin (BSA) in collagen-BSA gel wafers (Bos taurus, UniProt P02769). As to the kind of experiment: Collagen-BSA gel wafer assay: BSA diffusing from gel after fixation. The settings on record: for % of control retained (diluted 10 fold) / % change relative to fresh glutaraldehyde / % of control retained / % change relative to freshly prepared 4% glutaraldehyde: diluted 10 fold.
Chain of bovine serum albumin (BSA) in collagen-BSA gel wafers (P02769 25-607): as above
Source text: as §1
The effectiveness of the fixative ability of the pulpotomy agent of the present invention was assayed according to the method set out in Flitney, supra. Briefly, that method is as follows. Collagen gels (0.3 g/2.8 ml) were prepared containing a physiological salt solution and bovine serum albumin (1 g BSA/10 ml). The mixture was dissolved in a boiling water bath and measured amounts were pipetted into plastic vials. Collagen-BSA wafers were removed from the vials and incubated in a buffered glutaraldehyde solution and the 4% glutaraldehyde-containing pulpotomy agent prepared as described in Example I, above, for 4 minutes. Wafers treated with distilled water or sodium phosphate buffer for identical time periods were used as respective controls. Following incubation, relative fixation of protein in the gels was ascertained by measuring the amount of BSA which diffuses from the gels into 4 ml of water during a 30 minute period. BSA was quantified by the method described by Bradford, M. M., "A rapid and sensitive method for quantification of microgram quantities of protein utilizing the principles of protein dye binding," 72 Anal. Biochem. 248 (1976).
The quantity of BSA which diffused from each gel is reported below as a percentage of control lost or retained.

The mark [4] stands for this setting: stored at room temperature (25° C.) for eight months.

As for `O=CCCCC=O` [4% Glutaraldehyde, glutaraldehyde], the “% of control retained (LDH activity)” value turned out to be 6% in data set [1] (Fresh, mean of 5 samples); 3% in data set [1] (setting [4]); 4% in data set [1] (stored in the cold (5° C.) for eight months). The “% of control retained (residual LDH activity)” value in data set [1] (calf pulp incubated 4 minutes, five samples) is listed as 3.0%. For the same compound, the “LDH inhibition versus concentration” value in data set [1] (different concentrations for any treatment time, FIG. 3) was “log-dose response”. In addition, in data set [2] (2, 4, and 8 percent solutions, FIG. 2), the “secondary diffusion of BSA (depth of penetration)” value is reported as “decreased by approximately the same amount”. Besides, the “% of control retained (BSA in gel, penetration)” value in data set [2] (vials with gels intact submerged 4 minutes, five samples) is 27%. The “% of control retained (diluted 10 fold)” value in data set [3] (Fresh, mean of four samples) is recorded as 80%; in data set [3] (stored at room temperature for nine months) it was 72%; in data set [3] (stored in the cold for nine months) it was 72%. Besides, the “% of control gel retained” value stood at 80% in data set [3] (Fresh, heat assay, mean of four samples) and 53% in data set [3] (Heated: storage at 37° C. for three months). Also, the “% of control retained (undiluted solutions)” value is 85% in data set [3] (Fresh, mean of six samples); 85% in data set [3] (setting [4]); 85% in data set [3] (stored cold (5° C.) for eight months). For the same compound, the “% change relative to fresh glutaraldehyde” value is -34% in data set [3] (Heated at 37° C. for 3 Months) and -21% in data set [3] (Stored at 25° C. for 3 Months). In addition, the “% of control retained” value is on record as 53% in data set [3] (Heated at 37° C. for 3 Months); 63% in data set [3] (Stored at 25° C. for 3 Months); 80% in data set [3] (made up fresh, mean of four samples). In addition, the “% change relative to freshly prepared 4% glutaraldehyde” value in data set [3] (cold nine months) is listed as -8%; in data set [3] (room temperature nine months), -11%. In addition, the “% of control retained (BSA in gel)” value in data set [3] (wafers incubated 4 minutes, BSA diffusing into 4 ml water during 30 minutes, five samples) stood at 78%.
